From ChEMBL document CHEMBL1130951, “A photoactivated prodrug” (Bioorg Med Chem Lett, 1998)

Legend:
[1] = T1/2 was determined; assay type: ADME
DH5 alpha [2] = assay: Compound was irradiated and tested for its ability to inhibit growth of Escherichia coli DH5 alpha cells at 100 uM concentration; cell growth almost completely inhibited.; assay type: functional, cell-based
DH5 alpha [3] = assay: Compound was tested for its ability to inhibit growth of Escherichia coli DH5 alpha cells at 100 uM concentration; slight growth inhibition observed; assay type: functional, cell-based
DH5 alpha [4] = assay: Compound was tested for its ability to inhibit growth of Escherichia coli DH5 alpha cells at 100 uM concentration; complete arrest of cell growth observed; assay type: functional, cell-based

| half-life [1] [min] | Compound | inhibition (DH5 alpha [2]) | inhibition (DH5 alpha [3]) | inhibition (DH5 alpha [4]) |
| --- | --- | --- | --- | --- |
| 6 | COc1cc(COC(=O)OC[C@H]2O[C@@H](n3cc(F)c(=O)[nH]c3=O)C[C@@H]2O)c([N+](=O)[O-])cc1OC | cell growth almost completely inhibited | cell growth almost completely inhibited |  |
|  | O=c1[nH]c(=O)n([C@H]2C[C@H](O)[C@@H](CO)O2)cc1F |  |  | complete arrest of cell growth observed |
